Results taken from patent US9745310B2 (SK BIOPHARMACEUTICALS CO., LTD., priority 2015, dated 2017).
pEC50: −log10 of the molar value.

Target: human mGluR5 receptor (Homo sapiens (Human), UniProt P41594)
Experiment: Calcium influx assay based on fluorescence (mGluR5 PAM activity)
Settings: human mGluR5 receptor-overexpressed HEK293 cell line; L-glutamate EC20; Fluo-4, FLIPR
Outline: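 HEK293 cells overexpressing human mGluR5, loaded 1 h with Fluo-4 at 37° C. Compounds (10 μM to 10 nM final, 0.1–0.2% DMSO) added with an EC20 concentration of L-glutamate, and Ca2+ response read by FLIPR at room temperature. Activity scaled as 0% for EC20 glutamate alone and 100% for glutamate maximum.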

human mGluR5 receptor, sequence (P41594 21-1212): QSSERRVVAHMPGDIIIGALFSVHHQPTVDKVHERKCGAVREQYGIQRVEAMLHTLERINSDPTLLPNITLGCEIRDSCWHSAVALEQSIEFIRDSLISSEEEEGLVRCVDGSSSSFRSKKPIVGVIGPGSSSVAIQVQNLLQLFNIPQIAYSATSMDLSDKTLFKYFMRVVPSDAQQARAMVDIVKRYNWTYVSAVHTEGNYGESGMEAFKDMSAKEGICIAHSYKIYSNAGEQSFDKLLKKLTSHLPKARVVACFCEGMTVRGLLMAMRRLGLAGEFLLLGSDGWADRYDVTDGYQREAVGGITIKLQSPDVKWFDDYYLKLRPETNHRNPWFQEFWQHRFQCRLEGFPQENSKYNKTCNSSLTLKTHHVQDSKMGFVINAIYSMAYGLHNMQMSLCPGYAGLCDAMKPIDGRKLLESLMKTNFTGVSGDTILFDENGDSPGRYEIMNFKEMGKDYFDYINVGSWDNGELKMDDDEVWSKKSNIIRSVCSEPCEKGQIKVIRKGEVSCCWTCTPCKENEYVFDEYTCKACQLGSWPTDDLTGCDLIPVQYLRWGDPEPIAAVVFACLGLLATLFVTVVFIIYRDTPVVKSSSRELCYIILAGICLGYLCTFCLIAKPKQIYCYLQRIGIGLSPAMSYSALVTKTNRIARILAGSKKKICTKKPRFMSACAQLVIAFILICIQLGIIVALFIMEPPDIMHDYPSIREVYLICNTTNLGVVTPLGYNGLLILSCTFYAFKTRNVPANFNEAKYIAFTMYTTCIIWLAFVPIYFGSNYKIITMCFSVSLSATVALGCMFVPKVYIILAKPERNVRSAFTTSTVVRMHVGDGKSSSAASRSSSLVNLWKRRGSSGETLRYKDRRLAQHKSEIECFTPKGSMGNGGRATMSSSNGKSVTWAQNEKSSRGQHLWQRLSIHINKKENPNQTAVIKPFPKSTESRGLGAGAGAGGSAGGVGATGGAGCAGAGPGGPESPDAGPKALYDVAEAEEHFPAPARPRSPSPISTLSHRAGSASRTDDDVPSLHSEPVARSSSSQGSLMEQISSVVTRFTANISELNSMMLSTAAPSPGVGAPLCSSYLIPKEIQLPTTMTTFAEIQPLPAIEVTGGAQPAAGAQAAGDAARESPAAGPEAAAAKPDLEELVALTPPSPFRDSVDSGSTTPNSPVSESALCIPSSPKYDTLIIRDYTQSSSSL

Row | Compound | pEC50
1 | COc1ccc(-c2cnc3nc(COc4ccc(F)cc4)cn3c2)cc1N [Example 84, 5-[2-[(4-fluorophenoxy)methyl]imidazo[1,2-a]pyrimidin-6-yl]-2-methoxy-aniline] | 6.00 to 6.30
2 | Fc1ccc(-c2cnc3nc(COc4ccccc4)cn3n2)c(F)c1 [Example 178, 2-(2,4-difluorophenyl)-6-(phenoxymethyl)imidazo[1,2-b][1,2,4]triazine] | 6.30 to 7.00
3 | Fc1ccc(OCc2cn3cc(-c4cncc(Cl)c4)cnc3n2)cc1 [Example 88, 6-(5-chloro-3-pyridyl)-2-[(4-fluorophenoxy)methyl]imidazo[1,2-a]pyrimidine] | 6.30 to 7.00
4 | CCc1ccccc1-c1cnc2nc(COc3ccccn3)cn2c1 [Example 115, 6-(2-ethylphenyl)-2-(2-pyridyloxymethyl)imidazo[1,2-a]pyrimidine] | 6.30 to 7.00
5 | Fc1ccc(OCc2cn3cc(-c4ccc(F)cc4CCl)cnc3n2)cc1 [Example 197, 6-[2-(chloromethyl)-4-fluoro-phenyl]-2-[(4-fluorophenoxy)methyl)imidazo[1,2-a]pyrimidine] | 6.30 to 7.00
6 | Nc1cc(-c2cnc3nc(COc4ccc(F)cn4)cn3c2)ccc1F [Example 133, 2-fluoro-5-[2-[(5-fluoro-2-pyridyl)oxymethyl]imidazo[1,2-a]pyrimidin-6-yl]aniline] | 6.00 to 6.30
7 | Fc1ccc(-c2cnc3nc(COc4ccccn4)cn3c2)cc1 [Example 102, 6-(4-fluorophenyl)-2-(pyridin-2-yloxymethyl)imidazo[1,2-a]pyrimidine] | 6.30 to 7.00
8 | Fc1ccc(-c2cnc3nc(COc4ccccn4)cn3c2)c2c1OCO2 [Example 110, 6-(7-fluoro-2H-benzo[1,3]dioxol-4-yl)-2-(pyridin-2-yloxymethyl)imidazo[1,2-a]pyrimidine] | 6.30 to 7.00
9 | Fc1ccc(OCc2cn3cc(-c4ccc(C(F)(F)F)nc4)cnc3n2)nc1 [Example 131, 2-[(5-fluoro-2-pyridyl)oxymethyl]-6-[6-(trifluoromethyl)-3-pyridyl]imidazo[1,2-a]pyrimidine] | 6.30 to 7.00
10 | COc1cc(Cl)ccc1-c1cnc2nc(COc3ccc(F)cc3)cn2c1 [Example 69, 6-(4-chloro-2-methoxy-phenyl)-2-[(4-fluorophenoxy)methyl]imidazo[1,2-a]pyrimidine] | 6.30 to 7.00
11 | N#Cc1ccc(-c2cnc3nc(COc4ccccn4)cn3c2)cc1 [Example 140, 4-[2-(2-pyridyloxymethyl)imidazo[1,2-a]pyrimidin-6-yl]benzonitrile] | 6.30 to 7.00
12 | COc1ccc(-c2cnc3nc(COc4ccc(F)cc4)cn3c2)nc1 [Example 86, 2-[(4-fluorophenoxy)methyl]-6-(5-methoxy-2-pyridyl)imidazo[1,2-a]pyrimidine] | 6.30 to 7.00
13 | Cc1ccc(N)c(-c2cnc3nc(COc4ccc(F)cc4)cn3c2)c1 [Example 76, 2-[2-[(4-fluorophenoxy)methyl]imidazo[1,2-a]pyrimidin-6-yl]-4-methyl-aniline] | 6.30 to 7.00
14 | Nc1cc(F)c(F)cc1-c1cnc2nc(COc3ccc(F)cc3)cn2c1 [Example 73, 4,5-difluoro-2-[2-[(4-fluorophenoxy)methyl]imidazo[1,2-a]pyrimidin-6-yl]aniline] | 6.00 to 6.30
15 | Fc1ccc(OCc2cn3cc(-c4ccc(F)cc4)cnc3n2)cc1 [Example 53, 2-[(4-fluorophenoxy)methyl]-6-(4-fluorophenyl)imidazo[1,2-a]pyrimidine] | 6.30 to 7.00
16 | COc1cc(F)ccc1-c1cnc2nc(COc3cc(F)ccn3)cn2c1 [Example 118, 6-(4-fluoro-2-methoxy-phenyl)-2-[(4-fluoro-2-pyridyl)oxymethyl)imidazo[1,2-a]pyrimidine] | 6.30 to 7.00
17 | Cc1cc(F)ccc1-c1cnc2nc(COc3ccc(F)cc3)cn2c1 [Example 48, 6-(4-fluoro-2-methylphenyl)-2-(4-fluorophenoxymethyl)imidazo[1,2-a]pyrimidine] | 6.30 to 7.00
18 | Cc1ccc(-c2cnc3nc(COc4ccc(F)cc4)cn3c2)cc1N [Example 72, 5-[2-[(4-fluorophenoxy)methyl]imidazo[1,2-a]pyrimidin-6-yl]-2-methyl-aniline] | 6.30 to 7.00
19 | FC(F)(F)c1ccc(-c2cnc3nc(COc4ccccn4)cn3c2)cn1 [Example 130, 2-(2-pyridyloxymethyl)-6-[6-(trifluoromethyl)-3-pyridyl]imidazo[1,2-a]pyrimidine] | 6.30 to 7.00
20 | FCc1cc(F)ccc1-c1cnc2nc(COc3ccc(F)cc3)cn2c1 [Example 199, 6-[4-fluoro-2-(fluoromethyl)phenyl]-2-[(4-fluorophenoxy)methyl]imidazo[1,2-a]pyrimidine] | 6.30 to 7.00
21 | Oc1cc(-c2cnc3nc(COc4ccc(F)cc4)cn3c2)ccc1F [Example 55, 2-fluoro-5-[2-[(4-fluorophenoxy)methyl]imidazo[1,2-a]pyrimidin-6-yl]phenol] | 6.30 to 7.00
22 | COc1cc(C#N)ccc1-c1cnc2nc(COc3cccc(F)c3)cn2c1 [Example 95, 4-[2-[(3-fluorophenoxy)methyl]imidazo[1,2-a]pyrimidin-6-yl]-3-methoxy-benzonitrile] | 6.30 to 7.00
23 | COc1ccccc1-c1cnc2nc(COc3ccccc3)cn2c1 [Example 4, 6-(2-methoxyphenyl)-2-phenoxymethylimidazo[1,2-a]pyrimidine] | 6.30 to 7.00
24 | Cc1cc(F)ccc1-c1cnc2nc(COc3cncc(Cl)c3)cn2c1 [Example 160, 6-(4-fluoro-2-methylphenyl)-2-(5-chloropyridin-3-yloxymethyl)imidazo[1,2-a]pyrimidine] | 6.00 to 6.30
25 | Cc1cc(F)ccc1-c1cnc2nc(COc3ccnc(F)c3)cn2n1 [Example 184, 2-(4-fluoro-2-methylphenyl)-6-((2-fluoropyridin-4-yloxy)methyl)imidazo[1,2-b][1,2,4]triazine] | 6.30 to 7.00
26 | Cc1c(F)cccc1-c1cnc2nc(COc3ccccn3)cn2n1 [Example 187, 2-(3-fluoro-2-methyl-phenyl)-6-(2-pyridyloxymethyl)imidazo[1,2-b][1,2,4]triazine] | 6.30 to 7.00
27 | OCc1cc(F)ccc1-c1cnc2nc(COc3ccc(F)cc3)cn2c1 [Example 97, [5-fluoro-2-[2-[(4-fluorophenoxy)methyl]imidazo[1,2-a]pyrimidin-6-yl]phenyl]methanol] | 6.30 to 7.00

Next, values leading:

Row | pEC50 | Compound
28 | 6.30 to 7.00 | Fc1cc(OCc2cn3cc(-c4ccccc4F)cnc3n2)ccn1 [Example 166, 6-(2-fluorophenyl)-2-(2-fluoropyridin-4-yloxymethyl)imidazo[1,2-a]pyrimidine]
29 | 6.30 to 7.00 | Fc1ccc(-c2cnc3nc(COc4ccccn4)cn3c2)c(C(F)(F)F)c1 [Example 113, 6-[4-fluoro-2-(trifluoromethyl)phenyl]-2-(2-pyridyloxymethyl)imidazo[1,2-a]pyrimidine]
30 | 6.30 to 7.00 | Cc1cc(F)ccc1-c1cnc2nc(COc3cccnc3)cn2c1 [Example 149, 6-(4-fluoro-2-methylphenyl)-2-(pyridin-3-yloxymethyl)imidazo[1,2-a]pyrimidine]
31 | 6.30 to 7.00 | Oc1cc(F)ccc1-c1cnc2nc(COc3cccc(F)c3)cn2c1 [Example 57, 5-fluoro-2-[2-[(3-fluorophenoxy)methyl]imidazo[1,2-a]pyrimidin-6-yl]phenol]
32 | 6.30 to 7.00 | Cc1cc(F)ncc1-c1cnc2nc(COc3ccccc3)cn2c1 [Example 38, 6-(6-fluoro-4-methyl-3-pyridyl)-2-phenoxymethylimidazo[1,2-a]pyrimidine]
33 | 6.30 to 7.00 | Cc1c(F)cccc1-c1cnc2nc(COc3ccccn3)cn2c1 [Example 109, 6-(3-fluoro-2-methylphenyl)-2-(pyridin-2-yloxymethyl)imidazo[1,2-a]pyrimidine]
34 | 6.30 to 7.00 | Fc1ccc(-c2cnc3nc(COc4cccc(F)c4)cn3c2)cc1 [Example 54, 2-[(3-fluorophenoxy)methyl]-6-(4-fluorophenyl)imidazo[1,2-a]pyrimidine]
35 | 6.30 to 7.00 | Clc1cnccc1-c1cnc2nc(COc3ccccc3)cn2c1 [Example 36, 6-(3-chloropyridin-4-yl)-2-phenoxymethylimidazo[1,2-a]pyrimidine]
36 | 6.30 to 7.00 | Nc1ccccc1-c1cnc2nc(COc3cccc(F)c3)cn2c1 [Example 44, 6-(2-aminophenyl)-2-(3-fluorophenoxymethyl)imidazo[1,2-a]pyrimidine]
37 | 6.30 to 7.00 | Nc1ccccc1-c1cnc2nc(COc3ccccc3)cn2c1 [Example 10, 6-(2-aminophenyl)-2-phenoxymethylimidazo[1,2-a]pyrimidine]
38 | 6.00 to 6.30 | Fc1ccc(-c2cnc3nc(COc4ccccc4)cn3c2)cc1Cl [Example 13, 6-(3-chloro-4-fluorophenyl)-2-phenoxymethylimidazo[1,2-a]pyrimidine]
39 | 6.30 to 7.00 | Nc1cc(F)ccc1-c1cnc2nc(COc3ccnc(F)c3)cn2c1 [Example 176, 5-fluoro-2-[2-[(2-fluoro-4-pyridyl)oxymethyl]imidazo[1,2-a]pyrimidin-6-yl]aniline]
40 | 6.30 to 7.00 | Cc1ccc(-c2cnc3nc(COc4ccccn4)cn3c2)c(F)c1 [Example 117, 6-(2-fluoro-4-methyl-phenyl)-2-(2-pyridyloxymethyl)imidazo[1,2-a]pyrimidine]
41 | 6.30 to 7.00 | Fc1cc(OCc2cn3cc(-c4cccc(F)c4F)cnc3n2)ccn1 [Example 165, 6-(2,3-difluorophenyl)-2-(2-fluoropyridin-4-yloxymethyl)imidazo[1,2-a]pyrimidine]
42 | 6.30 to 7.00 | Cc1cc(F)ccc1-c1cnc2nc(COc3ccccn3)cn2c1 [Example 106, 6-(4-fluoro-2-methylphenyl)-2-(pyridin-2-yloxymethyl)imidazo[1,2-a]pyrimidine]
43 | 6.00 to 6.30 | Fc1ccc(-c2cnc3nc(COc4ccc(F)nc4)cn3c2)c(F)c1 [Example 157, 6-(2,4-difluorophenyl)-2-(6-fluoropyridin-3-yloxymethyl)imidazo[1,2-a]pyrimidine]
44 | 6.00 to 6.30 | Fc1ccc(-c2cnc3nc(COc4cccnc4)cn3c2)c(F)c1 [Example 148, 6-(2,4-difluorophenyl)-2-(pyridin-3-yloxymethyl)imidazo[1,2-a]pyrimidine]
